The term viability, T/C denotes the ratio of treated to control. What is called IC50 is the concentration at which inhibition is half-maximal.

Molecules are shown by their SMILES. “And” between values parts separate entries of the source, which are not always exact repeats. Identical values can stand only once.

The results in this text go back to PubChem BioAssay AID1963853 (Molecular Pharmacology Branch, DTP, NCI, 2024).

The assay has as its system 266295-075-R-J1-PDC spheroid viability. Put plainly: Anticancer human tumor 266295-075-R-J1-PDC patient-derived head and neck squamous carcinoma cell line growth inhibition [POLQ]. The settings on record: spheroids with HUVEC and MSC; for viability, T/C: stronger effect = lower value. On the procedure:
Multicellular complex tumor spheroid response to Polymerase (POL) inhibitors (novobiocin, ART-558, RP6685) in combination with a variety of drugs and investigational agents in selected tumor cell lines
The POL inhibitors (novobiocin, ART-558, and RP6685) were evaluated both individually and in combination with standard of care and investigational anticancer small molecules within a complex spheroid model of solid tumors. . Complex spheroids include a stromal component modeled by human endothelial cells (HUVEC) and fibroblasts modeled by human mesenchymal stem cells (MSCs). The concentration ranges selected for each drug and investigational agent were based upon clinically achievable concentrations if the clinical Cmax of the agent was known.
Compounds. The drugs and investigational agents: novobiocin (NSC847541), ART-558 (NSC835418), RP-6685 (NSC848927), peposertib (NSC802822), ceralasertib (NSC780249), elimusertib (NSC800525), camonsertib (NSC841442), AZD-1390 (NSC803789), olaparib (NSC753686), talazoparib (NSC767125), rucaparib (NSC756644), sotorasib (NSC818433), MRTX-1133 (NSC836407), SN-38 (NSC673596), topotecan (NSC609699), epotoside (NSC141540), doxorubicin (NSC123127), gemcitabine (NSC613327), 5-fluorouracil (NSC19893), paclitaxel (NSC125973), vemurafenib (NSC761431), MSA-2 (NSC828583), SN-011 (NSC837082), adavosertib (NSC754352), prexasertib (NSC758257), carboplatin (NSC241240) and oxaliplatin (NSC266046), were obtained from the National Cancer Institute (NCI) Developmental Therapeutics Program Chemical Repository (21). The FDA-approved anticancer drug set is available from the Developmental Therapeutics Program at https://dtp.cancer.gov/organization/dscb/obtaining/. […] The stock solutions were prepared in dimethyl sulfoxide (DMSO, Sigma-Aldrich, St. Louis, MO, cat. D2650), except for the platinum compounds which were prepared in saline (Quality Biological, Gaithersburg, MD, cat. 114-055-101), at 800-fold the tested concentration and stored at -70 degrees C prior to their use. All drugs and investigational agents were tested over a range starting from a high concentration at or near the clinical Cmax and decreasing in half-log increments. If the clinical Cmax for an agent had not been determined, the highest concentration tested was 10 microM, except for SN-38, which was tested at a high concentration of 1 microM.
Cell Culture. All cells were maintained in an incubator at 37 degrees C and 5% CO2 with 95% humidity. The PDC lines were cultured according to standard operating procedures established by the NCI PDMR (https://pdmr.cancer.gov). Table 3 of the manuscript, lists the cell lines along with the number of the three cell types plated to form the mct-spheroids and media for tumor cell growth. After thawing, all PDC lines, except 997537-175-T-J1-PDC and 415267-285-R-J2-PDC, were cultured in Matrigel-coated flasks prepared with a working solution of 1X Ham's F-12 nutrient mix, without supplementation (Thermo Fisher Scientific, cat. 11765054), 100 U/mL penicillin-streptomycin (Thermo Fisher Scientific, cat. 15140122), and 2.5% Matrigel (Corning Inc., Corning, NY, cat. 354248) for the first three passages. The two PDC lines 997537-175-T-J1-PDC and 415267-285-R-J2-PDC were cultured on uncoated flasks. The 857933-349-R-J2-PDC line was cultured in 6C/Colon 1B media containing advanced DMEM/F-12 (Thermo Fisher Scientific, cat. 12634028), 10 mM HEPES (Thermo Fisher Scientific, cat. 15630080), 1X GlutaMAX supplement (Thermo Fisher Scientific, cat. 35050061), 0.1 mg/mL primocin (InvivoGen, San Diego, CA, cat. ant-pm-2), 10% defined fetal bovine serum, heat inactivated (HyClone Laboratories Inc., Logan, UT, cat. SH30070.03HI), 50% L-WRN conditioned media (ATCC, cat. CRL-3276), 1.25 mM N-Acetyl-L-cysteine (Sigma-Aldrich, cat. A9165), 10 mM nicotinamide (Sigma-Aldrich, cat. N0636), 1X B-27 supplement (Thermo Fisher Scientific, cat. 17504044), 1X N-2 supplement (Thermo Fisher Scientific, cat. […]
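Also: spheroids exposed to compounds for seven days before readout.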

As for `CNCc1ccc(-c2[nH]c3cc(F)cc4c3c2CCNC4=O)cc1`, the viability, T/C by setting is: (compound 0.0316 µM) 105% and 77.3% and 89.9%; (compound 0.1 µM) 102% and 92.1% and 96.7%; (compound 0.316 µM) 107% and 102% and 87.6%; (compound 1 µM) 91.4% and 94% and 99.2%; (compound 3.16 µM) 110% and 105% and 106%; (compound 10 µM) 91.8% and 123% and 105%. For the same molecule, the IC50 (curve of compound) was more than 10 µM.
Turning to `COC1C(OC(N)=O)C(O)C(Oc2ccc3c(O)c(NC(=O)c4ccc(O)c(CC=C(C)C)c4)c(=O)oc3c2C)OC1(C)C` (stereo unspecified), the viability, T/C runs as follows: (compound 0.0316 µM) 101% [middle of 13 runs]; (compound 1 µM) 101% [middle of 13 runs]. For the same molecule, where the note is “compound alone, run of 10/31/2023”, the IC50 is more than 10 µM.
For `COc1cc(C2c3cc4c(cc3C(OC3OC5COC(C)OC5C(O)C3O)C3COC(=O)C23)OCO4)cc(OC)c1O` (stereo unspecified), the viability, T/C is 84.2% and 123% and 88.1% (compound 0.0316 µM); 80.5% and 94.5% and 116% (compound 0.1 µM); 92.3% and 110% and 112% (compound 0.316 µM); 77.7% and 88% and 98.4% (compound 1 µM); 79.7% and 84.9% and 93.1% (compound 3.16 µM); 72.6% and 84.4% and 82.6% (compound 10 µM). Besides, the IC50 (curve of compound) is more than 10 µM.
On to `COc1ccc([C@@H](O)c2cc(-c3ncnc4cc(N5CCOCC5)ccc34)c(F)cc2Cl)nn1`, for which the viability, T/C by setting is: (compound 0.0316 µM) 96.7% and 96.6% and 100%; (compound 0.1 µM) 89.4% and 101% and 98%; (compound 0.316 µM) 84.6% and 83% and 84%; (compound 1 µM) 60.7% and 73.9% and 67.8%; (compound 3.16 µM) 44.7% and 71.7% and 51.1%; (compound 10 µM) 39.7% and 44.2% and 39.9%. For the same molecule, the IC50 (curve of compound) was 2.17 µM and 8.03 µM and 3.39 µM.
As to `COc1cccc(OCCCN)c1-c1cc(Nc2cnc(C#N)cn2)n[nH]1`, the viability, T/C (compound 0.00316 µM) was 109% and 97% and 97.8%; the viability, T/C (compound 0.01 µM) is 88.7% and 92.5% and 82.9%; the viability, T/C (compound 0.0316 µM) is 70.5% and 72.5% and 94.9%; the viability, T/C (compound 0.1 µM) is 77.6% and 81.7% and 73.8%; the viability, T/C (compound 0.316 µM) was 73.2% and 70% and 74.8%; the viability, T/C (compound 1 µM) is 85% and 73.7% and 71.7%. The IC50 (curve of compound) is more than 1 µM.
Take `COc1cccc2c1C(=O)c1c(O)c3c(c(O)c1C2=O)CC(O)(C(=O)CO)CC3OC1CC(N)C(O)C(C)O1` (stereo unspecified): the viability, T/C (compound 0.0316 µM) was 75.4% and 85.8% and 98.2%; the viability, T/C (compound 0.1 µM) is 77% and 122% and 101%; the viability, T/C (compound 0.316 µM) was 67.3% and 74% and 72.5%; the viability, T/C (compound 1 µM) was 55.9% and 77.4% and 82.8%; the viability, T/C (compound 3.16 µM) is 47.4% and 71.8% and 63.5%; the viability, T/C (compound 10 µM) is 1.55% and 2.37% and 2.7%. Further, the IC50 (curve of compound) was 2 µM and 4.15 µM and 3.85 µM.
As to `Cn1ncnc1[C@H]1c2n[nH]c(=O)c3cc(F)cc(c23)N[C@@H]1c1ccc(F)cc1`, the viability, T/C reads like this: (compound 0.000316 µM) 103% and 112% and 99.9%; (compound 0.001 µM) 100% and 92.9% and 88.8%; (compound 0.00316 µM) 87.1% and 103% and 107%; (compound 0.01 µM) 102% (2×) and 92.9%; (compound 0.0316 µM) 104% and 112% and 89%; (compound 0.1 µM) 118% and 101% and 105%. For the same molecule, the IC50 (curve of compound) is more than 0.1 µM.
For the molecule `Nc1ccn(C2OC(CO)C(O)C2(F)F)c(=O)n1` (stereo unspecified), the viability, T/C is, setting by setting: (compound 0.0316 µM) 85.5% and 98.5% and 105%; (compound 0.1 µM) 81.7% and 117% and 83.4%; (compound 0.316 µM) 81.2% and 85.9% and 88.4%; (compound 1 µM) 64.9% and 81.8% and 83.7%; (compound 3.16 µM) 84.6% and 85.2% and 85.7%; (compound 10 µM) 75.2% and 82.7% and 85.4%. Moreover, the IC50 (curve of compound) is more than 10 µM.
With `O=C(c1cc(Cc2n[nH]c(=O)c3ccccc23)ccc1F)N1CCN(C(=O)C2CC2)CC1`, the viability, T/C by setting is: (compound 0.0316 µM) 114% and 79.6% and 101%; (compound 0.1 µM) 84% and 87.8% and 94.3%; (compound 0.316 µM) 94.3% and 90.3% and 90.9%; (compound 1 µM) 91.9% and 99.1% and 99.3%; (compound 3.16 µM) 112% and 105% and 107%; (compound 10 µM) 85.3% and 86.9% and 82.6%. The IC50 (curve of compound) is more than 10 µM.
In the case of `O=c1[nH]cc(F)c(=O)[nH]1`, the viability, T/C (compound 0.0316 µM) was 98.7% and 96% and 115%; the viability, T/C (compound 0.1 µM) is 89.9% and 91.2% and 95.8%; the viability, T/C (compound 0.316 µM) was 86.7% and 97.9% and 89.4%; the viability, T/C (compound 1 µM) was 89.8% and 116% and 102%; the viability, T/C (compound 3.16 µM) is 80.7% and 102% and 94.3%; the viability, T/C (compound 10 µM) was 89.4% and 89% and 84.3%. Also, the IC50 (curve of compound) was more than 10 µM.
